Reference: the supplement of paper PMC8612539
In brackets after ≈: the same amount, converted by molar mass.

Columns and labels:
Enterococcus spp. = test: minimum inhibitory concentration (MIC)
Method: (§1)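 Broth microdilution MIC (Sensititre BOPO7F bovine plate, CLSI methods) of 19 antimicrobials against field isolates of P. multocida, M. haemolytica, H. somni (deep nasopharyngeal swabs) and E. coli, Enterococcus spp. (rectal swabs) from weaned dairy heifers. Incubation 16-24 h at 35 C. MIC is the lowest concentration preventing visible growth. Values with <= or > lie at the tested range limits. Trimethoprim-sulfamethoxazole is given as the trimethoprim component of a 1:19 mixture.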

Mannheimia haemolytica = test: minimum inhibitory concentration (MIC)
Method: as §1

CNC(C)C1CCC(N)C(OC2C(N)CC(N)C(OC3OCC(C)(O)C(NC)C3O)C2O)O1 (centres undefined) [Gentamicin]
minimum inhibitory concentration [µg/mL]
Details	Enterococcus spp.	Mannheimia haemolytica
isolate (source animal id): 2	8 (≈ 16.8 µM)	–
isolate (source animal id): 8	–	2 (≈ 4.19 µM)
isolate (source animal id): 13	–	2 (≈ 4.19 µM)
isolate (source animal id): 18	–	2 (≈ 4.19 µM)
isolate (source animal id): 21	–	2 (≈ 4.19 µM)
isolate (source animal id): 25	–	4 (≈ 8.38 µM)
isolate (source animal id): 27	–	4 (≈ 8.38 µM)
isolate (source animal id): 28	–	2 (≈ 4.19 µM)
isolate (source animal id): 30	–	2 (≈ 4.19 µM)
isolate (source animal id): 31	–	4 (≈ 8.38 µM)
isolate (source animal id): 32	–	4 (≈ 8.38 µM)
isolate (source animal id): 34	–	4 (≈ 8.38 µM)
isolate (source animal id): 35	16 (≈ 33.5 µM)	–
isolate (source animal id): 36	–	4 (≈ 8.38 µM)
isolate (source animal id): 37	–	4 (≈ 8.38 µM)
isolate (source animal id): 40	–	4 (≈ 8.38 µM)
isolate (source animal id): 41	–	2 (≈ 4.19 µM)
isolate (source animal id): 42	8 (≈ 16.8 µM)	–
isolate (source animal id): 43	–	4 (≈ 8.38 µM)
isolate (source animal id): 44	16 (≈ 33.5 µM)	–
isolate (source animal id): 46	–	4 (≈ 8.38 µM)
isolate (source animal id): 49	–	4 (≈ 8.38 µM)
isolate (source animal id): 50	–	4 (≈ 8.38 µM)
isolate (source animal id): 51	–	2 (≈ 4.19 µM)
isolate (source animal id): 52	–	2 (≈ 4.19 µM)
isolate (source animal id): 53	–	4 (≈ 8.38 µM)
isolate (source animal id): 55	–	2 (≈ 4.19 µM)
isolate (source animal id): 56	–	2 (≈ 4.19 µM)
isolate (source animal id): 57	–	16 (≈ 33.5 µM)
isolate (source animal id): 79	16 (≈ 33.5 µM)	–
isolate (source animal id): 88	4 (≈ 8.38 µM)	–
isolate (source animal id): 91	4 (≈ 8.38 µM)	–
isolate (source animal id): 92	2 (≈ 4.19 µM)	–
isolate (source animal id): 100	–	4 (≈ 8.38 µM)
isolate (source animal id): 103	–	4 (≈ 8.38 µM)
isolate (source animal id): 107	–	4 (≈ 8.38 µM)
isolate (source animal id): 108	–	4 (≈ 8.38 µM)
isolate (source animal id): 111	4 (≈ 8.38 µM)	–
isolate (source animal id): 112	–	2 (≈ 4.19 µM)
isolate (source animal id): 113	–	16 (≈ 33.5 µM)
isolate (source animal id): 121	–	4 (≈ 8.38 µM)
isolate (source animal id): 122	16 (≈ 33.5 µM)	4 (≈ 8.38 µM)
isolate (source animal id): 123	8 (≈ 16.8 µM)	16 (≈ 33.5 µM)
isolate (source animal id): 126	–	4 (≈ 8.38 µM)
isolate (source animal id): 133	16 (≈ 33.5 µM)	2 (≈ 4.19 µM)
isolate (source animal id): 135	–	> 16
isolate (source animal id): 138	–	4 (≈ 8.38 µM)
isolate (source animal id): 141	–	16 (≈ 33.5 µM)
isolate (source animal id): 142	–	4 (≈ 8.38 µM)
isolate (source animal id): 145	–	4 (≈ 8.38 µM)
isolate (source animal id): 149	–	2 (≈ 4.19 µM)
isolate (source animal id): 151	–	2 (≈ 4.19 µM)
isolate (source animal id): 152	–	2 (≈ 4.19 µM)
isolate (source animal id): 154	–	2 (≈ 4.19 µM)
isolate (source animal id): 158	16 (≈ 33.5 µM)	–
isolate (source animal id): 159	–	4 (≈ 8.38 µM)
isolate (source animal id): 162	–	4 (≈ 8.38 µM)
isolate (source animal id): 168	8 (≈ 16.8 µM)	–
isolate (source animal id): 169	8 (≈ 16.8 µM)	–
isolate (source animal id): 170	–	4 (≈ 8.38 µM)
isolate (source animal id): 171	4 (≈ 8.38 µM)	2 (≈ 4.19 µM)
isolate (source animal id): 172	–	4 (≈ 8.38 µM)
isolate (source animal id): 173	–	4 (≈ 8.38 µM)
isolate (source animal id): 175	8 (≈ 16.8 µM)	–
isolate (source animal id): 177	8 (≈ 16.8 µM)	–
isolate (source animal id): 179	–	4 (≈ 8.38 µM)
isolate (source animal id): 180	–	2 (≈ 4.19 µM)
isolate (source animal id): 181	8 (≈ 16.8 µM)	–
isolate (source animal id): 182	8 (≈ 16.8 µM)	–
isolate (source animal id): 183	8 (≈ 16.8 µM)	2 (≈ 4.19 µM)
isolate (source animal id): 186	–	4 (≈ 8.38 µM)
isolate (source animal id): 187	8 (≈ 16.8 µM)	2 (≈ 4.19 µM)
isolate (source animal id): 188	–	2 (≈ 4.19 µM)
isolate (source animal id): 190	8 (≈ 16.8 µM)	2 (≈ 4.19 µM)
isolate (source animal id): 191	–	4 (≈ 8.38 µM)
isolate (source animal id): 192	–	2 (≈ 4.19 µM)
isolate (source animal id): 194	4 (≈ 8.38 µM)	–
isolate (source animal id): 195	8 (≈ 16.8 µM)	–
isolate (source animal id): 197	8 (≈ 16.8 µM)	–
isolate (source animal id): 201	–	2 (≈ 4.19 µM)
isolate (source animal id): 202	–	4 (≈ 8.38 µM)
isolate (source animal id): 209	–	4 (≈ 8.38 µM)
isolate (source animal id): 211	8 (≈ 16.8 µM)	2 (≈ 4.19 µM)
isolate (source animal id): 214	16 (≈ 33.5 µM)	–
isolate (source animal id): 220	–	4 (≈ 8.38 µM)
isolate (source animal id): 221	–	4 (≈ 8.38 µM)
isolate (source animal id): 222	8 (≈ 16.8 µM)	–
isolate (source animal id): 223	8 (≈ 16.8 µM)	4 (≈ 8.38 µM)
isolate (source animal id): 228	8 (≈ 16.8 µM)	–
isolate (source animal id): 230	8 (≈ 16.8 µM)	–
isolate (source animal id): 233	–	4 (≈ 8.38 µM)
isolate (source animal id): 235	4 (≈ 8.38 µM)	–
isolate (source animal id): 236	4 (≈ 8.38 µM)	–
isolate (source animal id): 237	–	4 (≈ 8.38 µM)
isolate (source animal id): 239	4 (≈ 8.38 µM)	–
isolate (source animal id): 241	4 (≈ 8.38 µM)	4 (≈ 8.38 µM)
isolate (source animal id): 244	4 (≈ 8.38 µM)	–
isolate (source animal id): 246	8 (≈ 16.8 µM)	–
isolate (source animal id): 247	4 (≈ 8.38 µM)	–
isolate (source animal id): 250	8 (≈ 16.8 µM)	–
isolate (source animal id): 252	8 (≈ 16.8 µM)	4 (≈ 8.38 µM)
isolate (source animal id): 253	–	4 (≈ 8.38 µM)
isolate (source animal id): 259	–	2 (≈ 4.19 µM)
isolate (source animal id): 260	–	4 (≈ 8.38 µM)
isolate (source animal id): 262	–	2 (≈ 4.19 µM)
isolate (source animal id): 268	4 (≈ 8.38 µM)	–
isolate (source animal id): 282	8 (≈ 16.8 µM)	2 (≈ 4.19 µM)
isolate (source animal id): 285	16 (≈ 33.5 µM)	–
isolate (source animal id): 287	–	4 (≈ 8.38 µM)
isolate (source animal id): 288	–	2 (≈ 4.19 µM)
isolate (source animal id): 289	4 (≈ 8.38 µM)	–
isolate (source animal id): 290	4 (≈ 8.38 µM)	–
isolate (source animal id): 291	–	2 (≈ 4.19 µM)
isolate (source animal id): 293	–	4 (≈ 8.38 µM)
isolate (source animal id): 296	8 (≈ 16.8 µM)	–
isolate (source animal id): 298	4 (≈ 8.38 µM)	2 (≈ 4.19 µM)
isolate (source animal id): 299	–	2 (≈ 4.19 µM)
isolate (source animal id): 300	–	2 (≈ 4.19 µM)
isolate (source animal id): 301	4 (≈ 8.38 µM)	–
isolate (source animal id): 302	–	2 (≈ 4.19 µM)
isolate (source animal id): 304	–	2 (≈ 4.19 µM)
isolate (source animal id): 306	–	2 (≈ 4.19 µM)
isolate (source animal id): 308	–	2 (≈ 4.19 µM)
isolate (source animal id): 309	–	2 (≈ 4.19 µM)
isolate (source animal id): 310	4 (≈ 8.38 µM)	–
isolate (source animal id): 313	–	4 (≈ 8.38 µM)
isolate (source animal id): 318	–	2 (≈ 4.19 µM)
isolate (source animal id): 320	8 (≈ 16.8 µM)	2 (≈ 4.19 µM)
isolate (source animal id): 321	–	4 (≈ 8.38 µM)
isolate (source animal id): 323	–	2 (≈ 4.19 µM)
isolate (source animal id): 324	–	4 (≈ 8.38 µM)
isolate (source animal id): 326	–	4 (≈ 8.38 µM)
isolate (source animal id): 328	–	4 (≈ 8.38 µM)
isolate (source animal id): 329	–	4 (≈ 8.38 µM)
isolate (source animal id): 331	8 (≈ 16.8 µM)	–
isolate (source animal id): 333	4 (≈ 8.38 µM)	4 (≈ 8.38 µM)
isolate (source animal id): 335	–	4 (≈ 8.38 µM)
isolate (source animal id): 338	–	4 (≈ 8.38 µM)
isolate (source animal id): 341	16 (≈ 33.5 µM)	–
